Patent publication US20140357655A1, “SPIROINDOLINE DERIVATIVES AS GONADOTROPIN- RELEASING HORMONE RECEPTOR ANTAGONISTS” (Bayer Intellectual Property GmbH, priority 2012, published 2014)

These compounds were tested against T1, human GnRH receptor (Homo sapiens, UniProt P30968) (assay: IP-One HTRF assay with buserelin (at EC80) stimulation). Settings: CHO cells stably expressing human GnRH receptor, read-out: Potency in IP-One HTRF assay, given as IC50.
T1 sequence (P30968 1-328): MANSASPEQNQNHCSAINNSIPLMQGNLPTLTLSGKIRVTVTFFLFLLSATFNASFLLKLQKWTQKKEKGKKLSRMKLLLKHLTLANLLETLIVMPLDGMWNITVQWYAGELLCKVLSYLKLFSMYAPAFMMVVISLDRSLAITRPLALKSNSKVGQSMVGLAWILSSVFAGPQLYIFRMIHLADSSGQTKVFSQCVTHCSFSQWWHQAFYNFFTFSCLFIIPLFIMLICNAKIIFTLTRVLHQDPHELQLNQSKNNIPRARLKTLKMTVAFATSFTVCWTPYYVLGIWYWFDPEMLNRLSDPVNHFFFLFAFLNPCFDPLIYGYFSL
Type: cell-based
Procedure, shortened: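 Ten-point duplicate titrations (20 μM to 1 nM) were fitted by 4-parameter model to normalized 665/620 nm HTRF ratios, 0% = no compound, 100% = no agonist. Assay measured IP1 accumulation in human GnRH-R CHO cells stimulated 1 h at 37° C with EC80 buserelin, then lysed 1 h at 22° C.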

| SMILES | IC50 |
| --- | --- |
| Cc1ccc(NC(=O)c2ccc3c(c2)C2(CCS(=O)(=O)CC2)C(C2CC2)N3S(=O)(=O)c2ccc(F)cc2)nc1 (stereo not drawn) [Example 29, 2-cyclopropyl-1-[(4-fluorophenyl)sulfonyl]-N-(5-methylpyridin-2-yl)-1,2,2′,3′,5′,6′-hexahydrospiro[indole-3,4′-thiopyran]-5-carboxamide 1′,1′-dioxide] | > 20000 nM |
| NS(=O)(=O)c1cccc(NC(=O)c2ccc3c(c2)C2(CCS(=O)(=O)CC2)C(C2CC2)N3S(=O)(=O)c2ccc(F)cc2)c1 (stereo not drawn) [Example 30, 2-cyclopropyl-1-[(4-fluorophenyl)sulfonyl]-N-(3-sulfamoylphenyl)-1,2,2′,3′,5′,6′-hexahydrospiro[indole-3,4′-thiopyran]-5-carboxamide 1′,1′-dioxide] | 245 nM |
| Cc1cccnc1CNC(=O)c1ccc2c(c1)C1(CCS(=O)(=O)CC1)C(C1CC1)N2S(=O)(=O)c1ccc(F)cc1 (stereo not drawn) [Example 31, 2-cyclopropyl-1-[(4-fluorophenyl)sulfonyl]-N-[(3-methylpyridin-2-yl)methyl]-1,2,2′,3′,5′,6′-hexahydrospiro[indole-3,4′-thiopyran]-5-carboxamide 1′,1′-dioxide] | 503 nM |
| O=C(NCc1ccccc1C(F)(F)F)c1ccc2c(c1)C1(CCS(=O)(=O)CC1)C(C1CC1)N2S(=O)(=O)c1ccc(F)cc1 (stereo not drawn) [Example 32, 2-cyclopropyl-1-[(4-fluorophenyl)sulfonyl]-N-[2-(trifluoromethyl)benzyl]-1,2,2′,3′,5′,6′-hexahydrospiro[indole-3,4′-thiopyran]-5-carboxamide 1′,1′-dioxide] | 58 nM |
| O=C(NC1CCOc2ccccc21)c1ccc2c(c1)C1(CCS(=O)(=O)CC1)C(C1CC1)N2S(=O)(=O)c1ccc(F)cc1 (stereo not drawn) [Example 33, 2-cyclopropyl-N-(3,4-dihydro-2H-chromen-4-yl)-1-[(4-fluorophenyl)sulfonyl]-1,2,2′,3′,5′,6′-hexahydrospiro[indole-3,4′-thiopyran]-5-carboxamide 1′,1′-dioxide] | 958 nM |
| COC(=O)c1cccc(NC(=O)c2ccc3c(c2)C2(CCS(=O)(=O)CC2)C(C2CC2)N3S(=O)(=O)c2ccc(F)cc2)c1 (stereo not drawn) [Example 34, methyl 3-[({2-cyclopropyl-1-[(4-fluorophenyl)sulfonyl]-1′,1′-dioxido-1,2,2′,3′,5′,6′-hexahydrospiro[indole-3,4′-thiopyran]-5-yl}carbonyl)amino]benzoate] | 66 nM |
| O=C(NCC1CC1)c1ccc2c(c1)C1(CCS(=O)(=O)CC1)C(C1CC1)N2S(=O)(=O)c1ccc(F)cc1 (stereo not drawn) [Example 35, 2-cyclopropyl-N-(cyclopropylmethyl)-1-[(4-fluorophenyl)sulfonyl]-1,2,2′,3′,5′,6′-hexahydrospiro[indole-3,4′-thiopyran]-5-carboxamide 1′,1′-dioxide] | 627 nM |
| O=C(NCC1CCCCC1)c1ccc2c(c1)C1(CCS(=O)(=O)CC1)C(C1CC1)N2S(=O)(=O)c1ccc(F)cc1 (stereo not drawn) [Example 36, N-(cyclohexylmethyl)-2-cyclopropyl-1-[(4-fluorophenyl)sulfonyl]-1,2,2′,3′,5′,6′-hexahydrospiro[indole-3,4′-thiopyran]-5-carboxamide 1′,1′-dioxide] | 169 nM |
| CN(C)S(=O)(=O)c1cccc(NC(=O)c2ccc3c(c2)C2(CCS(=O)(=O)CC2)C(C2CC2)N3S(=O)(=O)c2ccc(F)cc2)c1 (stereo not drawn) [Example 37, 2-cyclopropyl-N-[3-(N,N-dimethylsulfamoyl)phenyl]-1-[(4-fluorophenyl)sulfonyl]-1,2,2′,3′,5′,6′-hexahydrospiro[indole-3,4′-thiopyran]-5-carboxamide 1′,1′-dioxide] | 78 nM |
| O=C(NCC1CCCC1)c1ccc2c(c1)C1(CCS(=O)(=O)CC1)C(C1CC1)N2S(=O)(=O)c1ccc(F)cc1 (stereo not drawn) [Example 38, N-(cyclopentylmethyl)-2-cyclopropyl-1-[(4-fluorophenyl)sulfonyl]-1,2,2′,3′,5′,6′-hexahydrospiro[indole-3,4′-thiopyran]-5-carboxamide 1′,1′-dioxide] | 136 nM |
| COc1cccc(S(=O)(=O)N2c3ccc(C(=O)NCc4ncccc4C(F)(F)F)cc3C3(CCS(=O)(=O)CC3)C2C2CC2)c1 (stereo not drawn) [Example 39, 2-cyclopropyl-1-[(3-methoxyphenyl)sulfonyl]-N-{[3-(trifluoromethyl)pyridin-2-yl]methyl}-1,2,2′,3′,5′,6′-hexahydrospiro[indole-3,4′-thiopyran]-5-carboxamide 1′,1′-dioxide] | 53 nM |
| COc1cccc(S(=O)(=O)N2c3ccc(C(=O)NCc4ccccc4C(F)(F)F)cc3C3(CCS(=O)(=O)CC3)C2C2CC2)c1 (stereo not drawn) [Example 40, 2-cyclopropyl-1-[(3-methoxyphenyl)sulfonyl]-N-[2-(trifluoromethyl)benzyl]-1,2,2′,3′,5′,6′-hexahydrospiro[indole-3,4′-thiopyran]-5-carboxamide 1′,1′-dioxide] | 32 nM |
| COc1cccc(S(=O)(=O)N2c3ccc(C(=O)NCc4ncccc4Cl)cc3C3(CCS(=O)(=O)CC3)C2C2CC2)c1 (stereo not drawn) [Example 41, N-[(3-chloropyridin-2-yl)methyl]-2-cyclopropyl-1-[(3-methoxyphenyl)sulfonyl]-1,2,2′,3′,5′,6′-hexahydrospiro[indole-3,4′-thiopyran]-5-carboxamide 1′,1′-dioxide] | 234 nM |
| COc1cccc(S(=O)(=O)N2c3ccc(C(=O)Nc4cccc(S(N)(=O)=O)c4)cc3C3(CCS(=O)(=O)CC3)C2C2CC2)c1 (stereo not drawn) [Example 42, 2-cyclopropyl-1-[(3-methoxyphenyl)sulfonyl]-N-(3-sulfamoylphenyl)-1,2,2′,3′,5′,6′-hexahydrospiro[indole-3,4′-thiopyran]-5-carboxamide 1′,1′-dioxide] | 96 nM |
| COc1cccc(S(=O)(=O)N2c3ccc(C(=O)Nc4cccc(S(=O)(=O)N(C)C)c4)cc3C3(CCS(=O)(=O)CC3)C2C2CC2)c1 (stereo not drawn) [Example 43, 2-cyclopropyl-N-[3-(N,N-dimethylsulfamoyl)phenyl]-1-[(3-methoxyphenyl)sulfonyl]-1,2,2′,3′,5′,6′-hexahydrospiro[indole-3,4′-thiopyran]-5-carboxamide 1′,1′-dioxide] | 56 nM |
| COc1cccc(S(=O)(=O)N2c3ccc(C(=O)NCc4ccccc4Cl)cc3C3(CCS(=O)(=O)CC3)C2C2CC2)c1 (stereo not drawn) [Example 44, N-(2-chlorobenzyl)-2-cyclopropyl-1-[(3-methoxyphenyl)sulfonyl]-1,2,2′,3′,5′,6′-hexahydrospiro[indole-3,4′-thiopyran]-5-carboxamide 1′,1′-dioxide] | 31 nM |
| COc1cccc(S(=O)(=O)N2c3ccc(C(=O)NCc4ncccc4C)cc3C3(CCS(=O)(=O)CC3)C2C2CC2)c1 (stereo not drawn) [Example 45, 2-cyclopropyl-1-[(3-methoxyphenyl)sulfonyl]-N-[(3-methylpyridin-2-yl)methyl]-1,2,2′,3′,5′,6′-hexahydrospiro[indole-3,4′-thiopyran]-5-carboxamide 1′,1′-dioxide] | 299 nM |
| COc1cccc(S(=O)(=O)N2c3ccc(C(=O)NCc4ccc(F)cc4Cl)cc3C3(CCS(=O)(=O)CC3)C2C2CC2)c1 (stereo not drawn) [Example 46, N-(2-chloro-4-fluorobenzyl)-2-cyclopropyl-1-[(3-methoxyphenyl)sulfonyl]-1,2,2′,3′,5′,6′-hexahydrospiro[indole-3,4′-thiopyran]-5-carboxamide 1′,1′-dioxide] | 81 nM |
| COc1cccc(S(=O)(=O)N2c3ccc(C(=O)NCc4ccccc4F)cc3C3(CCS(=O)(=O)CC3)C2C2CC2)c1 (stereo not drawn) [Example 47, 2-cyclopropyl-N-(2-fluorobenzyl)-1-[(3-methoxyphenyl)sulfonyl]-1,2,2′,3′,5′,6′-hexahydrospiro[indole-3,4′-thiopyran]-5-carboxamide 1′,1′-dioxide] | 133 nM |
| COC(=O)c1cccc(NC(=O)c2ccc3c(c2)C2(CCS(=O)(=O)CC2)C(C2CC2)N3S(=O)(=O)c2cccc(OC)c2)c1 (stereo not drawn) [Example 48, methyl 3-[({2-cyclopropyl-1-[(3-methoxyphenyl)sulfonyl]-1′,1′-dioxido-1,2,2′,3′,5′,6′-hexahydrospiro[indole-3,4′-thiopyran]-5-yl}carbonyl)amino]benzoate] | 55 nM |
| COc1cccc(S(=O)(=O)N2c3ccc(C(=O)Nc4cccc(C(=O)O)c4)cc3C3(CCS(=O)(=O)CC3)C2C2CC2)c1 (stereo not drawn) [Example 50, 3-[({2-cyclopropyl-1-[(3-methoxyphenyl)sulfonyl]-1′,1′-dioxido-1,2,2′,3′,5′,6′-hexahydrospiro[indole-3,4′-thiopyran]-5-yl}carbonyl)amino]benzoic acid] | 54 nM |
| O=C(NCc1ncccc1F)c1ccc2c(c1)C1(CCS(=O)(=O)CC1)C(C1CC1)N2S(=O)(=O)c1ccc(F)cc1 (stereo not drawn) [Example 52, 2-cyclopropyl-1-[(4-fluorophenyl)sulfonyl]-N-[(3-fluoropyridin-2-yl)methyl]-1,2,2′,3′,5′,6′-hexahydrospiro[indole-3,4′-thiopyran]-5-carboxamide 1′,1′-dioxide] | 752 nM |
| COc1cccc(S(=O)(=O)N2c3ccc(C(=O)NCc4ncccc4F)cc3C3(CCS(=O)(=O)CC3)C2C2CC2)c1 (stereo not drawn) [Example 53, 2-cyclopropyl-N-[(3-fluoropyridin-2-yl)methyl]-1-[(3-methoxyphenyl)sulfonyl]-1,2,2′,3′,5′,6′-hexahydrospiro[indole-3,4′-thiopyran]-5-carboxamide 1′,1′-dioxide] | 617 nM |
| C=CCC1N(S(=O)(=O)c2cccc(C(=O)OC)c2)c2ccc(C(=O)NCc3ccccc3Cl)cc2C12CCS(=O)(=O)CC2 (stereo not drawn) [Example 54, methyl 3-({5-[N-(2-chlorobenzyl)carbamoyl]-1′,1′-dioxido-2-(prop-2-en-1-yl)-1,2,2′,3′,5′,6′-hexahydrospiro[indole-3,4′-thiopyran]-1-yl}sulfonyl)benzoate] | 91 nM |
